For assay [1], the system named is CCRF S-180. Nature of the assay: In vivo antitumor activity against mouse S180 cells implanted in mouse assessed as cell growth at 20 ug/mouse for 10 days relative to control. The assay is classed as functional.
The test system of assay [2] is CCRF S-180. Briefly: In vivo antitumor activity against mouse S180 cells implanted in mouse assessed as cell growth at 10 ug/mouse for 10 days relative to control. The assay is classed as functional.
For assay [3], the system named is CCRF S-180. Briefly: In vivo antitumor activity against mouse S180 cells implanted in mouse assessed as cell growth at 5 ug/mouse for 10 days relative to control. The assay is classed as functional.
In assay [4] the test system is CCRF S-180. Nature of the assay: In vivo antitumor activity against mouse S180 cells implanted in mouse assessed as cell growth at 2.5 ug/mouse for 10 days relative to control. Format: functional.
For assay [5], the system named is CCRF S-180. Briefly: In vivo antitumor activity against mouse S180 cells implanted in mouse assessed as cell growth at 1.25 ug/mouse for 10 days relative to control. The assay is classed as functional.
The test system of assay [6] is CCRF S-180. Briefly: In vivo antitumor activity against mouse S180 cells implanted in mouse assessed as cell growth at 0.625 ug/mouse for 10 days relative to control. Format: functional.
Assay [7] deals with CCRF S-180. Briefly: In vivo antitumor activity against mouse S180 cells implanted in mouse after 10 days. Format: functional, organism-based.
In assay [8] the test system is CCRF S-180. Briefly: In vivo antitumor activity against mouse S180 cells implanted in mouse assessed as cell growth at 60 ug/mouse for 10 days relative to control. Format: functional.
The subject of assay [9] is CCRF S-180. Nature of the assay: In vivo antitumor activity against mouse S180 cells implanted in mouse assessed as cell growth at 40 ug/mouse for 10 days relative to control. Format: functional.
The test system of assay [10] is L1210. Nature of the assay: Cytotoxicity against mouse L1210 cells. Format: functional, cell-based.
Assay [11] concerns CCRF S-180. Briefly: Cytotoxicity against mouse S180 cells. Format: functional, cell-based.
The subject of assay [12] is KB. Nature of the assay: Cytotoxicity against human KB cells. The assay is classed as functional, cell-based.
Assay [13] concerns CCRF S-180. Nature of the assay: Antitumor activity against mouse S180 cells implanted in mouse in presence of cyclophosphamide administered 24 hrs prior to implantation. Format: functional, cell-based.

For three molecules, T/C, IC50 and Activity results are on record in ChEMBL document CHEMBL1145721, “The secalosides, novel tumor cell growth inhibitory glycosides from a pollen extract” (J Nat Prod, 1997).

The T/C is the result in the treated group divided by that in the control group, in per cent.

Activity calls are given as the source filed them. The rule behind the calls is not given here.

Consider `O=C(O)CC1C(=O)Nc2ccccc21` (stereo not given), for which the T/C in assay [1] stood at 0%; in assay [2], 0%; in assay [3] it was 0%; in assay [4], 0%; in [5], 16%; in assay [6], 36%. Also, the IC50 result in assay [7] was “<= 1 ug”.

In the case of `O=C1CC(C(=O)O)c2ccccc2N1` (racemic), the T/C stood at 0% in [1]; 0% in [2]; 0% in assay [3]; 0% in [4]; 30% in assay [5]; 62% in assay [6]. The IC50 entry in assay [7] is reported as “<= 1 ug”.

As for `COc1cc(C2c3cc(O[C@@H]4O[C@H](COC(=O)CC5C(=O)Nc6ccccc65)[C@@H](O)[C@H](O)[C@H]4O)c(O)cc3C3C(=O)O[C@H]4[C@H](O)[C@@H](COC(=O)C32)O[C@@]4(CO)O[C@H]2O[C@H](CO)[C@@H](O)[C@H](O)[C@H]2O)ccc1O` (stereo not given in full) [SECALOSDIE A/B], the T/C in assay [8] came out at 0%; in assay [9] it was 2%; in [1], 17%; in [2], 24%; in assay [3], 45%; in assay [4], 70%. The IC50 in assay [7] was 5 µg. For the same molecule, the result in assay [10], in assay [11], in [12] and in assay [13] was inactive.
